Laboratory results: patent publication US9329184B2, “Fluorescent probe” (THE UNIVERSITY OF TOKYO, priority 2011, dated 2016)
One block for each compound: values may come before it.

Assays:
[1] = Absorption and fluorescence spectra and pH profiles in sodium phosphate buffer; format: physicochemical; conditions: for pH-dependent change of absorbance / λabs / λfl: 0.1 M sodium phosphate buffer containing 1% DMSO; for pH-dependent change of absorbance: pH profile; for λabs / λfl: Table 1
Method: (§1) Fluorescence was measured with an excitation wavelength of 593 nm.
Fluorescence was measured with an excitation wavelength of 505 nm.
Fluorescence was measured with an excitation wavelength of 590 nm.
Absorption and fluorescence spectra as well as pH profiles of 2-Me SiR600 and the acetylated compound thereof (N-Ac-2-Me SiR600) synthesized in Example 2 were measured. […] Therefore, 2-Me SiR600 in which the amino group at the 3-position is acylated can be functioned as a fluorescent probe for detecting enzymatic activity on the basis of absorption wavelength change with a high S/N ratio, without using the intramolecular photoinduced electron transfer.
In a similar manner, absorption and fluorescence spectra as well as pH profiles of 2-COOH SiR600 and the acetylated compound thereof were measured. […] Therefore, it can be used as a fluorescent probe as shown in the following scheme.
Absorption spectrum of Z-DEVD-SiR600 was measured in a 0.1 M sodium phosphate buffer of pH 3 to 10 containing 1% DMSO. The measurement results are shown in FIG. 5, and the photochemical characteristics are shown in Table 3 mentioned below together with the results for SiR600.

leucine aminopeptidase = test: Reaction of fluorescent probe with leucine aminopeptidase (absorption/fluorescence before and after); format: biochemical; conditions: for absorption maximum wavelength: 0.1 M sodium phosphate buffer pH 7.4, 37° C., before/after reaction with leucine aminopeptidase
Method: as §1
Function of Leu-SiR600 as a fluorescent probe was evaluated by reacting it with leucine aminopeptidase. Leucine aminopeptidase (0.096 unit) was added to Leu-SiR600 (6 μM), and the mixture was reacted for 2.5 hours. The reaction performed at 37° C. in a 0.1 M sodium phosphate buffer (pH 7.4, 0.75 ml) containing 0.8% DMSO. The absorption spectra and fluorescence spectra observed before and after the reaction are shown in FIG. 7, (b) and (c), respectively.

caspase-3 = test: Reaction of fluorescent probe with caspase-3 (absorption/fluorescence before and after); format: biochemical; conditions: for absorption maximum wavelength: 20 mM HEPES buffer pH 7.4, 37° C., before/after reaction with caspase-3
Method: as §1
Function of Z-DEVD-SiR600 as a fluorescent probe was evaluated by reacting it with caspase-3. Caspase-3 (0.5 μg) was added to Z-DEVD-SiR600 (2 μM), and the mixture was reacted for 10 hours. The reaction was performed at 37° C. in a 20 mM HEPES buffer (pH 7.4, 0.75 ml) containing 100 μM dithiothreitol (DTT), 10% glycerol, 0.1% CHAPS, 100 mM NaCl, and 0.1% DMSO. The absorption spectra and fluorescence spectra observed before and after the reaction (excitation wavelengths are shown in FIG. 6, (b) and (c), respectively, and the kinetics parameters of the reaction are shown in FIG. 6, (d)).

Compound: CC(=O)Nc1ccc2c(c1)[Si](C)(C)c1cc(N)ccc1C21OC(=O)c2ccccc21 (stereo not drawn) [N-Acetyl-2-COOH SiR600]
absorption for the visible region ([1]; physiological pH range): not to show absorption for the visible region in the physiological pH range

Compound: Cc1ccccc1C1=C2C=CC(=N)C=C2[Si](C)(C)c2cc(NC(=O)[C@H](N)CC(C)C)ccc21 [Leu-SiR600]
absorption maximum wavelength (leucine aminopeptidase): around 500 nm
fluorescence before and after the reaction with leucine aminopeptidase (leucine aminopeptidase; probe 6 μM, leucine aminopeptidase 0.096 unit, 2.5 hours, 37° C., excitation light 593 nm): scarcely observed before the reaction, but extremely strong fluorescence is observed after the reaction

Compound: C[Si]1(C)c2cc(N)ccc2C2(OC(=O)c3ccccc32)c2ccc(N)cc21 [2-COOH SiR600]
pH-dependent change of absorbance [1]: did not substantially show absorbance change at pH higher than the physiological pH region
ΦFL ([1]; Table 2, pH 7.4): 0.26
ε ([1]; Table 2, pH 7.4): 4000 M⁻¹ cm⁻¹
λem ([1]; Table 2, pH 7.4): 610 nm
λex ([1]; Table 2, pH 7.4): 590 nm

Compound: CC(=O)Nc1ccc2c(c1)[Si](C)(C)C1=CC(=N)C=CC1=C2c1ccccc1C [N-Ac-2-Me SiR600, N-Acetyl-2-Me SiR600]
pH-dependent change of absorbance [1]: decreased with decrease of pH
λabs [1]: 505 nm
λfl [1]: 600 nm
shift of maximum absorption wavelength compared with 2-Me SiR600 ([1]; acetylation of the amino group at the 3-position): significantly shifted to the shorter wavelength side

Compound: Cc1ccccc1C1=C2C=CC(=N)C=C2[Si](C)(C)c2cc(N)ccc21 [2-Me SiR600]
absorption maximum wavelength (leucine aminopeptidase): 593 nm
pH-dependent change of absorbance [1]: did not substantially show pH-dependent change of absorbance
maximum absorption wavelength ([1]; Example 4): 593 nm
λabs [1]: 593 nm
λfl [1]: 613 nm
ΦFL ([1]; Table 3, pH 7.4): 0.38
ε ([1]; Table 3, pH 7.4): 91000 M⁻¹ cm⁻¹
λem ([1]; Table 3, pH 7.4): 613 nm
λex ([1]; Table 3, pH 7.4): 593 nm
absorption maximum wavelength (caspase-3): 593 nm

pH-dependent change of absorbance [1]: showed pH-dependent absorbance change
ΦFL ([1]; Table 3, pH 3.0): 0.19
ε ([1]; Table 3, pH 3.0): 85000 M⁻¹ cm⁻¹
λem ([1]; Table 3, pH 3.0): 600 nm
λex ([1]; Table 3, pH 3.0): 500 nm
absorption maximum wavelength (caspase-3): around 500 nm
Compound: Z-DEVD-SiR600
absorption of light around 593 nm ([1]; around the maximum absorption wavelength of SiR600): did not absorb light around the maximum absorption wavelength (593 nm) of SiR600
fluorescence before and after the reaction with caspase-3 (caspase-3; probe 2 μM, caspase-3 0.5 μg, 10 hours, 37° C., excitation light 593 nm): scarcely observed before the reaction, but extremely strong fluorescence is observed after the reaction
